Data on 19 molecules can be found in ChEMBL document CHEMBL3351924, “Detailed analysis and follow-up studies of a high-throughput screening for indoleamine 2,3-dioxygenase 1 (IDO1) inhibitors” (Eur J Med Chem, 2014).

In brackets after ≈: the same amount, converted by molar mass.

As usually defined, the CC50 is the concentration at which the toxic effect on the cells reaches its halfway point. A high value points to lower toxicity to the cells. The term IC50 denotes the concentration that gives 50% inhibition. For orientation: solubility means the concentration that dissolves in the medium under given conditions. High values mean a readily soluble substance, low ones a poorly soluble substance.

The nature of series [1]: Cytotoxicity against mouse P815B cells after 24 hrs by MTS/PMS assay.
Series [2] deals with Tryptophan 2,3-dioxygenase (Mus musculus, UniProt P48776). Description: Inhibition of mouse TDO expressed in mouse P815B cells using L-tryptophan substrate incubated for 24 hrs by HPLC based cellular assay. It is filed as cell-based.
The nature of series [3]: Solubility of the compound in pH 6.5 phosphate buffer containing 5% DMSO.
Series [4] has as its target T1, Indoleamine 2,3-dioxygenase 1 (Homo sapiens, UniProt P14902). Description: Inhibition of IDO1 (unknown origin) using L-tryptophan substrate incubated for 60 mins by HPLC.
The target of series [5] is Indoleamine 2,3-dioxygenase 1 (Mus musculus, UniProt P28776). Description: Inhibition of mouse IDO1 expressed in mouse P815B cells using L-tryptophan substrate incubated for 18 hrs by HPLC based cellular assay. The series is classed as cell-based.
For series [6], the target named is T1, Indoleamine 2,3-dioxygenase 1. Briefly: Inhibition of IDO1 (unknown origin) using L-tryptophan substrate incubated for 60 mins in presence of 5 mM GSH by HPLC.
Series [7] shares this target. Briefly: Inhibition of IDO1 (unknown origin) using L-tryptophan substrate incubated for 60 mins in presence of 0.01% Triton-X by HPLC. The conditions noted are these: read-out: IC50.
The mark [8] stands for this setting: phosphate buffer containing 5% DMSO.

Indoleamine 2,3-dioxygenase 1 (Mus musculus, UniProt P28776), sequence (P28776 whole entry): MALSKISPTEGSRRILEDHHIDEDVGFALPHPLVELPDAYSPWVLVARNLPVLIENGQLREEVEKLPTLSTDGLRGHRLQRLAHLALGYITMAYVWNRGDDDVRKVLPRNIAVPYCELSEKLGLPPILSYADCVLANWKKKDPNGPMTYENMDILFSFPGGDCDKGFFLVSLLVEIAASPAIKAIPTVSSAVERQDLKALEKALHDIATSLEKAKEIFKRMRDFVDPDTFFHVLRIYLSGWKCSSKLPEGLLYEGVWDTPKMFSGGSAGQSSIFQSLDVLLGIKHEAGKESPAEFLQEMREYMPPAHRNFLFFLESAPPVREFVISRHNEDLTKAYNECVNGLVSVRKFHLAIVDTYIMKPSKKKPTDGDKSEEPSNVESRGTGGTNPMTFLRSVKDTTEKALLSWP
T1 sequence (P14902 whole entry): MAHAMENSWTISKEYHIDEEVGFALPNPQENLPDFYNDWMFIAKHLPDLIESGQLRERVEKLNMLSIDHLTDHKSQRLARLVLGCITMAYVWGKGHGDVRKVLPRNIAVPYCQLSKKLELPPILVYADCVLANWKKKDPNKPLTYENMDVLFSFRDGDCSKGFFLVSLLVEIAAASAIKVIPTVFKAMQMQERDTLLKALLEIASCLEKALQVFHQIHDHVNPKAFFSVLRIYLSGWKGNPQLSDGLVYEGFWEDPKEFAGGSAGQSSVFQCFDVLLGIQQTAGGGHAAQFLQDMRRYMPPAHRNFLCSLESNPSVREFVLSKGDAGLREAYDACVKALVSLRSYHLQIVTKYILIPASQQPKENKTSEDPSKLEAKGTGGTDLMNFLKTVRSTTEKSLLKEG
Tryptophan 2,3-dioxygenase, sequence (P48776 whole entry): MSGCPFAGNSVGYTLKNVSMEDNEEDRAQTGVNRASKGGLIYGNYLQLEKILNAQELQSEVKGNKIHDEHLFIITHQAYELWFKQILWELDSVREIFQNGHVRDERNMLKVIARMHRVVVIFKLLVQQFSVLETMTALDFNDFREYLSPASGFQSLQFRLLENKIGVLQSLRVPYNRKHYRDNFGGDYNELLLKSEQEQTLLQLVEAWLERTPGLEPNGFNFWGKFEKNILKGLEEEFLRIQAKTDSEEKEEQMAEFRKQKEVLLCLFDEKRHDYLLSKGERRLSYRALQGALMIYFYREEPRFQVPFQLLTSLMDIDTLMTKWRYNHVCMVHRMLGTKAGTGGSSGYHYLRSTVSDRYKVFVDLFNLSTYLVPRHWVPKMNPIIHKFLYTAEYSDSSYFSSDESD

`C=CCOC(Cn1ccnc1)c1ccc(Cl)cc1Cl` (stereo not given) [ENILCONAZOLE]: the CC50 at 24 h in series [1] (P815B cells) was more than 25 µM. Besides, the concentration for half-maximal inhibition (IC50) entry in series [2] (p815b) was “Not Active”; in series [4] (read-out: IC50), 23 µM; in series [5] (p815b) it was “Not Active”. Further, in series [3] (setting [8]), the solubility stood at 10 µM (≈ 2.97 µg/mL).
As for `Clc1ccc(C(Cn2ccnc2)OCc2c(Cl)cccc2Cl)c(Cl)c1` (stereo not given) [ISOCONAZOLE], in series [1] (P815B cells), half-maximal cytotoxicity (CC50 at 24 h) was put at 10 µM. Also, the concentration for half-maximal inhibition (IC50) result in series [2] (p815b) was “Not Active”; in series [4] (read-out: IC50) it was 23 µM; in series [5] (p815b), “Not Active”. In series [3] (setting [8]), this molecule showed a solubility of 50 µM (≈ 20.8 µg/mL).
For `COC(=O)/C(C#N)=C(\C#N)c1ccc(Br)o1`, the midpoint of cytotoxicity in series [1] (P815B cells), the CC50 at 24 h, lay at 5 µM. The 50% inhibitory concentration (IC50) result is “Not Active” in series [2] (p815b), 7.1 µM in series [6], 0.71 µM in series [4] (read-out: IC50) and “Not Active” in series [5] (p815b). For the same molecule, the solubility in series [3] (setting [8]) is 100 µM (≈ 28.1 µg/mL).
In series [1] (p815b), `Clc1ccc(CO/N=C(\Cn2ccnc2)c2ccc(Cl)cc2Cl)c(Cl)c1` [OXICONAZOLE] yielded a cytotoxic concentration (CC50) at 24 h of 10 µM. Also, the IC50 result in series [2] (p815b) was “Not Active”; in series [4] (read-out: IC50), 28 µM; in series [5] (p815b), “Not Active”. Besides, the solubility in series [3] (setting [8]) was 20 µM (≈ 8.58 µg/mL).
`Clc1ccc(COC(Cn2ccnc2)c2ccc(Cl)cc2Cl)c(Cl)c1` (stereo not given) [MICONAZOLE]: it took 10 µM to reach half-maximal cytotoxicity in series [1] (p815b) (CC50 at 24 h). The IC50 entry in series [2] (p815b) is “Not Active”; in series [7] it was 3.8 µM; in series [4] (read-out: IC50), 6.7 µM; in series [5] (p815b) it was “Not Active”. The solubility in series [3] (setting [8]) came to 10 µM (≈ 4.16 µg/mL).
As for `N#CC(C(=O)Nc1cccc(C(F)(F)F)c1)C(=S)Nc1ccccc1Cl` (stereo not given), the CC50 at 24 h in series [1] (P815B cells) is more than 25 µM. Further, the half-maximal inhibitory concentration (IC50) result in series [2] (p815b) was “Not Active”; in series [6], 71 µM; in series [7], 6.3 µM; in series [4] (read-out: IC50), 7 µM; in series [5] (p815b), “Not Active”. The molecule also registered a solubility in series [3] (setting [8]) of 1000 µM (≈ 398 µg/mL).
`Clc1ccc(CSC(Cn2ccnc2)c2ccc(Cl)cc2Cl)cc1` (stereo not given) [SULCONAZOLE] came in with a CC50 at 24 h in series [1] (p815b) of 10 µM. The IC50 result in series [2] (p815b) and in series [5] (p815b) was “Not Active” each time. The molecule further displayed a solubility in series [3] (setting [8]) of 10 µM (≈ 3.98 µg/mL).
For the molecule `Cc1ccc(-n2nnnc2C/C=N/Nc2ccc(Cl)cc2)cc1`, in series [1] (P815B cells), the 50% cytotoxic concentration (CC50) at 24 h turned out to be 10 µM. The concentration for half-maximal inhibition (IC50) in series [2] (read-out: IC50) worked out at 4.2 µM; in series [6], 31 µM; in series [7], 53 µM; in series [4] (read-out: IC50), 54 µM; in series [5] (read-out: IC50), 0.34 µM. The same molecule registered a solubility in series [3] (setting [8]) of 12.5 µM (≈ 4.08 µg/mL).
With `Clc1ccc(COC(Cn2ccnc2)c2ccc(Cl)cc2Cl)cc1` (stereo not given) [ECONAZOLE], in series [1] (P815B cells), half-maximal cytotoxicity (CC50 at 24 h) was put at 10 µM. The values for the IC50 entry in series [2] (p815b), in series [4] and in series [5] (p815b) were “Not Active”, 8.1 µM and “Not Active”, respectively. The same molecule displayed a solubility in series [3] (setting [8]) of 10 µM (≈ 3.82 µg/mL).
As to `CCOC(=O)c1ccc(-n2sccc2=O)cc1`, the midpoint of cytotoxicity in series [1] (P815B cells), the CC50 at 24 h, lay at 10 µM. Also, the half-maximal inhibitory concentration (IC50) entry in series [2] (p815b) was “Not Active”; in series [6] it was 100 µM; in series [7] it was 11 µM; in series [4] (read-out: IC50), 15 µM; in series [5] (p815b), “Not Active”. Further, the solubility in series [3] (setting [8]) was 500 µM (≈ 125 µg/mL).
In turn, `c1ccc(-c2ccc(C(c3ccccc3)n3ccnc3)cc2)cc1` (stereo not given) [BIFONAZOLE] came in with a CC50 at 24 h in series [1] (P815B cells) of 10 µM. The results for the IC50 entry in series [2] (p815b), in series [4] (read-out: IC50) and in series [5] (p815b) were “Not Active”, 23 µM and “Not Active”, respectively. The molecule also displayed a solubility in series [3] (setting [8]) of 25 µM (≈ 7.76 µg/mL).
As to `O=c1ccsn1-c1cccc(Cl)c1F`, the half-maximal cytotoxic concentration (CC50) at 24 h in series [1] (P815B cells) was found to be 10 µM. In addition, the IC50 entry in series [2] (p815b) is “Not Active”; in series [6], 200 µM; in series [7] it was 4.8 µM; in series [4] (read-out: IC50), 11 µM; in series [5] (p815b), “Not Active”. The molecule also yielded a solubility in series [3] (setting [8]) of 1000 µM (≈ 230 µg/mL).
Turning to `CC(=O)N1CCN(c2ccc(OCC3COC(Cn4ccnc4)(c4ccc(Cl)cc4Cl)O3)cc2)CC1` (stereo not given) [KETOCONAZOLE], the CC50 at 24 h in series [1] (P815B cells) was 25 µM. For the same molecule, the IC50 entry in series [2] (p815b) is “Not Active”; in series [7], 25 µM; in series [4] (read-out: IC50), 32 µM; in series [5] (p815b), “Not Active”. This molecule returned a solubility in series [3] (setting [8]) of 100 µM (≈ 53.1 µg/mL).
`N#CC(C#N)=C1c2cc(S(N)(=O)=O)cc([N+](=O)[O-])c2-c2c1cc(S(N)(=O)=O)cc2[N+](=O)[O-]`: in series [1] (P815B cells), the 50% cytotoxic concentration (CC50) at 24 h was more than 25 µM. For the same molecule, the IC50 result in series [2] (p815b) was “Not Active”; in series [6], 1.6 µM; in series [7], 0.96 µM; in series [4] (read-out: IC50), 1 µM; in series [5] (p815b) it was “Not Active”. The molecule further registered a solubility in series [3] (setting [8]) of 250 µM (≈ 119 µg/mL).
As to `COC(=O)/C(C#N)=C1/C(=O)Nc2ccccc21`, the cytotoxic concentration (CC50) at 24 h in series [1] (P815B cells) is more than 25 µM. Moreover, the half-inhibitory concentration (IC50) result in series [2] (p815b) was “Not Active”; in series [6], 130 µM; in series [4] (read-out: IC50), 1.8 µM; in series [5] (p815b), “Not Active”. The same molecule returned a solubility in series [3] (setting [8]) of 100 µM (≈ 22.8 µg/mL).
In turn, `N=C(N)SCc1nc(-c2ccc(Cl)cc2)no1` had a CC50 at 24 h in series [1] (P815B cells) of 10 µM. Moreover, the concentration for half-maximal inhibition (IC50) entry in series [2] (p815b) was “Not Active”; in series [7] it was 1.2 µM; in series [4] (read-out: IC50), 0.89 µM; in series [5] (read-out: IC50), 2.1 µM. This molecule gave a solubility in series [3] (setting [8]) of 1000 µM (≈ 269 µg/mL).
For `Clc1ccc(C(Cn2ccnc2)OCc2csc3c(Cl)cccc23)c(Cl)c1` (stereo not given) [SERTACONAZOLE], it took 10 µM to reach half-maximal cytotoxicity in series [1] (P815B cells) (CC50 at 24 h). Further, the results for the concentration for half-maximal inhibition (IC50) result in series [2] (p815b), in series [4] (read-out: IC50) and in series [5] (p815b) were “Not Active”, 8.4 µM and “Not Active”, respectively. In addition, the concentration in solution in series [3] (setting [8]) (solubility) came to 10 µM (≈ 4.38 µg/mL).
For the molecule `NNC(=O)c1nn(-c2ccccc2)c(=O)c2c(N)scc12`, in series [1] (P815B cells), the CC50 at 24 h is more than 25 µM. For the same molecule, the IC50 entry was “Not Active” in series [2] (p815b), 15 µM in series [7], 13 µM in series [4] (read-out: IC50) and “Not Active” in series [5] (p815b). Besides, the solubility in series [3] (setting [8]) turned out to be 1000 µM (≈ 301 µg/mL).
Turning to `NNCCc1ccccc1` [PHENELZINE], the CC50 at 24 h in series [1] (p815b) is more than 25 µM. For the same molecule, the IC50 result in series [2] (p815b) is “Not Active”; in series [4] (read-out: IC50) it was 14 µM; in series [5] (p815b), “Not Active”. In series [3] (buffer), this molecule had a solubility of 1000 µM (≈ 136 µg/mL).
